Assay [1] has as its target STE20-like serine/threonine-protein kinase (Homo sapiens, UniProt Q9H2G2). Briefly: Selectivity interaction (KinomeScan (DiscoverX)) EUB0001619a SLK. To be noted: at 1 µM.
Assay [2] has as its target Transient receptor potential cation channel subfamily M member 6 (Homo sapiens) (UniProt Q9BX84). Briefly: Selectivity interaction (KinomeScan (DiscoverX)) EUB0000607a TRPM6. The settings on record: at 10 µM.
In assay [3] the target is T1, Protein kinase C iota type (Homo sapiens) (UniProt P41743).
T1 sequence (whole entry): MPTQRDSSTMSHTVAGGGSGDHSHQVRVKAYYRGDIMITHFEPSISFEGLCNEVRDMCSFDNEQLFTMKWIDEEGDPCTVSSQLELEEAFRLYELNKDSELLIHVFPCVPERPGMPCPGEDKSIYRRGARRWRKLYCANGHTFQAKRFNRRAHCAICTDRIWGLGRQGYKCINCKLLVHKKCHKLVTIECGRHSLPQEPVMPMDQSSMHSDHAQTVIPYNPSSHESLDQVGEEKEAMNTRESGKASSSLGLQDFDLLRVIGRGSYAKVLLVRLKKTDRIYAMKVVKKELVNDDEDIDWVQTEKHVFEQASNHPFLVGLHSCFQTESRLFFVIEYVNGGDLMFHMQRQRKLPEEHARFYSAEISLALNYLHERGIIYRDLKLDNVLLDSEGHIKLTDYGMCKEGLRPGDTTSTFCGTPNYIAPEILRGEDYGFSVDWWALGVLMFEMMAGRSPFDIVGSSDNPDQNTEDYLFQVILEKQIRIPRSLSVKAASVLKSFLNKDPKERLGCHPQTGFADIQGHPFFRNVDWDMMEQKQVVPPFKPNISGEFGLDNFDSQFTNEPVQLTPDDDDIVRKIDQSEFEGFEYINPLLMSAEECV
Briefly: Selectivity interaction (ActivX KiNativ screen (kinase selectivity in THP-1 cell lysates)) EUB0000639a PRKCI. Format: subcellular. The settings on record: lysate, at 5 µM.

Assay [4] addresses Protein kinase C beta type (Homo sapiens, UniProt P05771). The assay can be described thus: Selectivity interaction (Kinase panel (literature)) EUB0001199aCl PRKCB. The settings on record: at 1 µM.
For assay [5], the target named is Cyclin-dependent kinase 11B (Homo sapiens) (UniProt P21127). The assay can be described thus: Selectivity interaction (KinomeScan (DiscoverX)) EUB0001049a CDK11B. The settings on record: at 1 µM.
Sequence of Cyclin-dependent kinase 11B (Homo sapiens) (P21127 whole entry): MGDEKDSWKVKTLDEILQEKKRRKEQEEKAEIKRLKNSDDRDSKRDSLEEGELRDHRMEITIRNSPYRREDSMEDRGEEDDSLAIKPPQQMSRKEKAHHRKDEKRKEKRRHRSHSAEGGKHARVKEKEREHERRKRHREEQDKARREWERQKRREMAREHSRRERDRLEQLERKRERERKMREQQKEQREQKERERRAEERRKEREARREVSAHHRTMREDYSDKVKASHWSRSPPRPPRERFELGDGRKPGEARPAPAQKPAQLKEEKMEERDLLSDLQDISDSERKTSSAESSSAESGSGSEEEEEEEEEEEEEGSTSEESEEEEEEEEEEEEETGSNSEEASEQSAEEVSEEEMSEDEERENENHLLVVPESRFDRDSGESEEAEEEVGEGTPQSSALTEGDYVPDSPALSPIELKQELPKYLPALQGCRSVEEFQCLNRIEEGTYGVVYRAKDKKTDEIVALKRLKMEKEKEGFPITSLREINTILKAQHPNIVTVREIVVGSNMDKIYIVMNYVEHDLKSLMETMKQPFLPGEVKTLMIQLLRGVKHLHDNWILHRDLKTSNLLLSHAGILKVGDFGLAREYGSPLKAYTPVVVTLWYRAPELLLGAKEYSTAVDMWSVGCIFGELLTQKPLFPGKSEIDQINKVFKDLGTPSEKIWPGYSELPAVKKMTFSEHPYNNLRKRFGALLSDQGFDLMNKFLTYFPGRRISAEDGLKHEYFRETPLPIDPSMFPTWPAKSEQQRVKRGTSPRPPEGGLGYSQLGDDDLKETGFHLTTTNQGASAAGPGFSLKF
In assay [6] the target is T2, Muscarinic acetylcholine receptor M1 (Homo sapiens) (UniProt P11229).
T2 sequence (whole entry): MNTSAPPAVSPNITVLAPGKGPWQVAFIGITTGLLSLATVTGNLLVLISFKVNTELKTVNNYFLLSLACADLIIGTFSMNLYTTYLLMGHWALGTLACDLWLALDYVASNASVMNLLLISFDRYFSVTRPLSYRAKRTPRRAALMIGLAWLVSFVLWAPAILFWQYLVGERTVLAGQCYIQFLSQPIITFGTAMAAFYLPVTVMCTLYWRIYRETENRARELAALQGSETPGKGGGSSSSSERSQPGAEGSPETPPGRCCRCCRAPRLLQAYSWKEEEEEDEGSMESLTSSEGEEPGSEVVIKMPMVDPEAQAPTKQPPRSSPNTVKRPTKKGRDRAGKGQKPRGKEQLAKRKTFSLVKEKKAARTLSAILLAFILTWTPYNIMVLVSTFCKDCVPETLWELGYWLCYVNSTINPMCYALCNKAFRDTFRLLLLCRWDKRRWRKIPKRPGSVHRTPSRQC
Briefly: Selectivity interaction (Panel of kinases, GPCRs, ion channels and transporters (enzymatic assay)) EUB0000223bCl CHRM1.

In assay [7] the target is T3, Cyclin-dependent kinase 11A (Homo sapiens) (UniProt Q9UQ88).
T3 sequence (whole entry): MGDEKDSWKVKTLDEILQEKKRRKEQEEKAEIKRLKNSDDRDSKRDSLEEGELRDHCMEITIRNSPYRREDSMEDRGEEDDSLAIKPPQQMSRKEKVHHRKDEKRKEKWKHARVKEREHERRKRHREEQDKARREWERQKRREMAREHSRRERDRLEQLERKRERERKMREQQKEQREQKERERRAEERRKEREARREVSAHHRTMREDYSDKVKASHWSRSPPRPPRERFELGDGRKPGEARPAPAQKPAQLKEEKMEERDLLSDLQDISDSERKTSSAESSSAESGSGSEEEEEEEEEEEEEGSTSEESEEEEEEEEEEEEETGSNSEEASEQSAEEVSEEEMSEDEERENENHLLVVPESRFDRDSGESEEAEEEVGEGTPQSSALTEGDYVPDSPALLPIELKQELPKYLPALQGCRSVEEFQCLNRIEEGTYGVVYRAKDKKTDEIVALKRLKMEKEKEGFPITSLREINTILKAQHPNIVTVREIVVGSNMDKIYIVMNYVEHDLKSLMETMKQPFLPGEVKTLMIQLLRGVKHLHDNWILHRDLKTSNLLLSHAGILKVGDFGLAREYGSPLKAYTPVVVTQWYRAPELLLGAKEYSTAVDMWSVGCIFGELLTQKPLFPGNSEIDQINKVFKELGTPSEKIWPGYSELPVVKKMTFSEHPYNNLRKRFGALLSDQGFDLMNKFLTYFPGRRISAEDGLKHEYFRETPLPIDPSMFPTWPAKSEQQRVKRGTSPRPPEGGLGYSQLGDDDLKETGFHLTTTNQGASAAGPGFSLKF
Briefly: Selectivity interaction (KinomeScan (DiscoverX)) EUB0000092b CDK11A. The settings on record: at 10 µM.

Assay [8] deals with Serine/threonine-protein kinase WNK3 (Homo sapiens) (UniProt Q9BYP7). The assay can be described thus: Selectivity interaction (KinomeScan (DiscoverX)) EUB0001079a WNK3. To be noted: at 1 µM.
Sequence of Serine/threonine-protein kinase WNK3 (Homo sapiens) (Q9BYP7 whole entry): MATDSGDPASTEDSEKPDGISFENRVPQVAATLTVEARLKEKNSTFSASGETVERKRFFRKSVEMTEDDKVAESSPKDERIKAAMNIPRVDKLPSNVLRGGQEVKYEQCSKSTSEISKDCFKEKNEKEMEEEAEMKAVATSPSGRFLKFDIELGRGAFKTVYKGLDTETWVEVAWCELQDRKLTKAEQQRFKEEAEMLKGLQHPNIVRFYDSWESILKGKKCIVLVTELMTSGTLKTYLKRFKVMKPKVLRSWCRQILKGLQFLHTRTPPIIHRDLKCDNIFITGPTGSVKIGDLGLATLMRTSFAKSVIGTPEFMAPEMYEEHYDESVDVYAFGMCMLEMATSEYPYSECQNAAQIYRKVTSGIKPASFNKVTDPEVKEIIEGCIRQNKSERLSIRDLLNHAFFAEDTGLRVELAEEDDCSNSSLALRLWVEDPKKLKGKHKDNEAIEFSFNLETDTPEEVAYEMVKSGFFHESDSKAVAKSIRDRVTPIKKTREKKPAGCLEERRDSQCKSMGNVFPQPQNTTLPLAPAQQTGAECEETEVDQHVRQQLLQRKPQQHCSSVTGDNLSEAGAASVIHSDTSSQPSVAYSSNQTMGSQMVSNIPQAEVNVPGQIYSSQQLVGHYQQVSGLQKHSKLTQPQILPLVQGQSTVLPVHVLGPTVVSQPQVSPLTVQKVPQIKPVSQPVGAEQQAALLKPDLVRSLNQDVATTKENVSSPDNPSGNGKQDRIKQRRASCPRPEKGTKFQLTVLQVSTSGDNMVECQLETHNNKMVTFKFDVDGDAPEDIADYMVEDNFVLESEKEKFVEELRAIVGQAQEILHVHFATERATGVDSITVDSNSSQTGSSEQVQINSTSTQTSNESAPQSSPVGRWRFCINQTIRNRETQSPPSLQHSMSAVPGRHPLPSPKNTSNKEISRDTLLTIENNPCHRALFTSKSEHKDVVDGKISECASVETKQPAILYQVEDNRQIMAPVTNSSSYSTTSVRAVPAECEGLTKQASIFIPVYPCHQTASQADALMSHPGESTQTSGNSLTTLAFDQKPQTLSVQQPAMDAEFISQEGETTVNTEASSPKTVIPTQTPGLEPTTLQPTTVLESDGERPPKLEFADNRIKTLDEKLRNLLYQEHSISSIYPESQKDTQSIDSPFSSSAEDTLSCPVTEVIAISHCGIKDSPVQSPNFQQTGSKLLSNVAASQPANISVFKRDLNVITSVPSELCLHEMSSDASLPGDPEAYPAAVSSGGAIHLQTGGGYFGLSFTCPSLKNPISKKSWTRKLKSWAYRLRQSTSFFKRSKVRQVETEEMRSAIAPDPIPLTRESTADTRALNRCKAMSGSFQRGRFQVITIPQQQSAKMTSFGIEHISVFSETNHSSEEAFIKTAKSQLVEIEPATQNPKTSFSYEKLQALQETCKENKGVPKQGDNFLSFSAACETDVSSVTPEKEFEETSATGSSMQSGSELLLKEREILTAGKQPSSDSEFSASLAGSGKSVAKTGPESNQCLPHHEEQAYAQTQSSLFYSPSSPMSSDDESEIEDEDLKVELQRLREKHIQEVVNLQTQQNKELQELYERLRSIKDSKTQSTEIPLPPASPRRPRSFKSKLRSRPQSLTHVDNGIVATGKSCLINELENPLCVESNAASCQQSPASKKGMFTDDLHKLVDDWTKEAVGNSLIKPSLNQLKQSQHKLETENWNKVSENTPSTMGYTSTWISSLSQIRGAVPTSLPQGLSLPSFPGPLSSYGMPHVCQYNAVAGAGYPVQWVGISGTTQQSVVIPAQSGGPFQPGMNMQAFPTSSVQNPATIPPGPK

Sequence of Protein kinase C beta type (P05771 2-671 limits assumed): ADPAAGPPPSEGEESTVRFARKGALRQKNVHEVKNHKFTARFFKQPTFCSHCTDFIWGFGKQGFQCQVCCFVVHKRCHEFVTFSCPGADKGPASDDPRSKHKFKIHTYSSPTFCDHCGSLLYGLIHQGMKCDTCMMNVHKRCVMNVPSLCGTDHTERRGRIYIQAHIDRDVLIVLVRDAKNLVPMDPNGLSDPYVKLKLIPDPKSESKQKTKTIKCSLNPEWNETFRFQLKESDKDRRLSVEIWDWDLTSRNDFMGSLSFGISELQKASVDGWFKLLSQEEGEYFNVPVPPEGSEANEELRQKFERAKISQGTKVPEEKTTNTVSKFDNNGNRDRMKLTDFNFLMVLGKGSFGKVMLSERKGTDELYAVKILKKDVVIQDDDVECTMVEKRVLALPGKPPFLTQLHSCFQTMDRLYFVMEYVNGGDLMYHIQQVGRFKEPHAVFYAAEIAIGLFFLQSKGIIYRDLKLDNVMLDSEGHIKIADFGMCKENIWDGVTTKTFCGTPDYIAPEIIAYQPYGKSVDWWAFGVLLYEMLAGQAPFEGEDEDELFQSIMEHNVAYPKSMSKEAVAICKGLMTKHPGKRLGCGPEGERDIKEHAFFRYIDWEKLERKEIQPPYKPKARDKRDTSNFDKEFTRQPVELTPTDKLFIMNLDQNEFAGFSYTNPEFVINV
Sequence of STE20-like serine/threonine-protein kinase (Q9H2G2 whole entry, looked up): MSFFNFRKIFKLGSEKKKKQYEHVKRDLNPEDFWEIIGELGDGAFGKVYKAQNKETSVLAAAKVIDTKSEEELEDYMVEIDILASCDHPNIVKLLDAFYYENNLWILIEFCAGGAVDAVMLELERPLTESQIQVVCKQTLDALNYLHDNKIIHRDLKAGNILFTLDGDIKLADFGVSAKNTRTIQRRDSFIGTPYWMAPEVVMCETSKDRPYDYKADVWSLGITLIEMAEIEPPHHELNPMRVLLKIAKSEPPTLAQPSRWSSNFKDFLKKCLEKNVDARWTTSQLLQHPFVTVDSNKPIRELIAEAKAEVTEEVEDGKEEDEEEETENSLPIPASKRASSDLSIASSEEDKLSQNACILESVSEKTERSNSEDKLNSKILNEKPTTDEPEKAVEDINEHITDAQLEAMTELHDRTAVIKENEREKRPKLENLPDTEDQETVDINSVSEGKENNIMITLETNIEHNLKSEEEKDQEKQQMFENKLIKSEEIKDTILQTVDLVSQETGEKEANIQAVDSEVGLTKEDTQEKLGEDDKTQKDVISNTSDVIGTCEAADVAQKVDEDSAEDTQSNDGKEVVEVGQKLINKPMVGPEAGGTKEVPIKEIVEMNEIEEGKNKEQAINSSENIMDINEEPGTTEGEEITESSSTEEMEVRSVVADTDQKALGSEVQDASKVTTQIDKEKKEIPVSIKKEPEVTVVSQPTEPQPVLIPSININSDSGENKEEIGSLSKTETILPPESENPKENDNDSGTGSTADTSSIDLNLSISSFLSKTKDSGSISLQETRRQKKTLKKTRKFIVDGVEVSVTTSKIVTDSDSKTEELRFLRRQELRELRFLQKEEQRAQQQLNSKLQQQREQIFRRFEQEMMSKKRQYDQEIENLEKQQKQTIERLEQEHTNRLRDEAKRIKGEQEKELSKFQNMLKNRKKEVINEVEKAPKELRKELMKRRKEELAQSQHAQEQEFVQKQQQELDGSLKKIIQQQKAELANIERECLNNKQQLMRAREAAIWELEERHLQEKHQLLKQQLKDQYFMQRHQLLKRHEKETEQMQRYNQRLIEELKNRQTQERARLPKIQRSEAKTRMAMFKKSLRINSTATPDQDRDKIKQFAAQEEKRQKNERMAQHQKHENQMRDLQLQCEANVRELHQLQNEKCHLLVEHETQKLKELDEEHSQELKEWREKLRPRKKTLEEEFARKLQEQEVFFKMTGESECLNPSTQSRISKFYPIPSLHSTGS

Take `N#Cc1cccc(-c2c[nH]c3ncnc(N4CCOCC4)c23)c1`: in assay [1], the % of control is 25%. `CNC(=O)Nc1ccc(-c2nc(N3CC4CCC(C3)O4)c3cnn(C4CCC5(CC4)OCCO5)c3n2)cc1` returned a % of control in assay [2] of 100%. Consider `CC[C@@H]1[C@H](F)C(=O)N[C@@H]1COc1nccc2cc(C(N)=O)c(OC)cc12` [ZIMLOVISERTIB], for which the % of inhibition in assay [3] is 14.6%. For the compound `CN1Cc2nccc(-c3cn(C)nc3-c3ccc(F)cc3)c2C1=O`, the % of inhibition in assay [4] was -2%.

`COc1cc(Nc2nc(C)cc(-c3cnn4nc(OC)ccc34)n2)cc(C(F)(F)F)c1` yielded a % of control in assay [5] of 100%. For `COc1cc(C(=O)N2CC[C@@H](O)[C@@H](N)C2)cc2nc(-c3cc4ccccc4n3CC3CC3)n(C)c12`, in assay [6], the pXC50 came out at 4.9 M. On to `CCC(=O)N1CCN(c2ccc(-n3c(=O)ccc4cnc5ccc(-c6cnc7ccccc7c6)cc5c43)cc2C(F)(F)F)CC1`, for which the % of control in assay [7] amounted to 100%. The compound `Nc1cnc(N2CCc3cc(S(=O)(=O)Nc4c(F)cc(Cl)cc4F)cc(N4CCCC4=O)c32)nc1` [TP-020n] showed a % of control in assay [8] of 100%.
